Results: article PMC4667731 (Journal of medicinal chemistry, 2015)
Entries after “also recorded” stand apart in the source; their conditions may differ.

Key:
[1] = Serum stability studies of prodrugs; format: in vitro ADME; conditions: Figure S8
[2] = Pharmacokinetics in Sprague-Dawley rats; conditions: rat; for detection in serum samples after oral dose of prodrug: p.o. 25 mg/kg
[3] = tested on: M. tuberculosis H37Rv; test: M. tuberculosis H37Rv MIC assay under iron-deficient conditions; format: cell-based; conditions: Mycobacterium tuberculosis, pH 6.6
[4] = Stability under acidic and alkaline conditions; format: physicochemical; conditions: 24 h at 37 °C
[5] = Estimated pKa of the acyl-sulfonyl linker; format: physicochemical
[6] = tested on: TB infection; conditions: dosed intraperitoneally; cited from earlier work
[7] = in vitro; conditions: human, Caco-2, […]
[8] = tested on: UDP-gluguronosyl transferase (UDPGT); test: Glucuronidation study, rat liver microsomes; conditions: UDPGA
[9] = tested on: UDP-gluguronosyl transferase (UDPGT); test: Glucuronidation study, human liver microsomes; conditions: UDPGA
[10] = Aqueous solubility; format: physicochemical

## 2′, 3′ -O-di-Acetyl-5′ -O-[N-(2-hydroxybenzoyl)sulfamoyl]adenosine [Compound 2]
[1]
  serum stability (acetate cleavage): slowly hydrolyzed
[2]
  detection in serum samples after oral dose of prodrug: neither of the parent compounds was detected

## CCN(CC)CC.Nc1ncnc2c1ncn2[C@@H]1O[C@H](COS(=O)(=O)NC(=O)c2ccccc2O)[C@@H](O)[C@H]1O [Compound 1, 5′-O-[N-(salicyl)sulfamoyl]adenosine]
[3]
  MIC: 0.2 µg/mL
[4]; acidic (pH 1)
  degradation: less than 5%
[4]; alkaline (pH 12)
  degradation: less than 5%
[5]
  pKa: ~3
[6]
  efficacy in acute murine TB infection model: effective
[7]
  Papp A→B: 1.2 ×10⁻⁶ cm/s

## COc1c(C)c2c(c(O)c1C/C=C(\C)CCC(=O)O)C(=O)OC2 [MPA, Mycophenolic Acid]
[8]
  glucuronidated at 60 min: 30%
[9]
  glucuronidated at 60 min: 85%

## CCN(CC)CC.Nc1nc(-c2ccccc2)nc2c1ncn2[C@@H]1O[C@H](CNS(=O)(=O)NC(=O)c2ccccc2O)[C@@H](O)[C@H]1F [Compound 9, 2′, 5′-Dideoxy-2′-fluoro-5′-N-[N-(2-hydroxybenzoyl)sulfamoyl]amino-2-phenyladenosine triethylammonium salt]
[3]
  MIC: 1 µg/mL

## 5′-O-[N-(2-Acetoxybenzoyl)sulfamoyl]-2′, 3′-O-di-acetyladenosine [Compound 3]
[1]
  serum stability (acetate cleavage): rapidly cleaved
[2]; 25 mg/kg
  detection in serum samples after oral dose of prodrug: neither of the parent compounds was detected; also recorded: only a negligible amount of 1 could be detected

## CCN(CC)CC.Nc1ncnc2c1ncn2[C@@H]1O[C@H](CNS(=O)(=O)NC(=O)c2ccccc2O)C[C@H]1F [Compound 10, 2′, 3′, 5′-Trideoxy-5′-N-[N-(2-hydroxybenzoyl)sulfamoyl]amino-2′-fluoroadenosine triethylammonium salt]
[3]
  MIC: 0.43 µg/mL

## CCN(CC)CC.Nc1ccc(C(=O)NS(=O)(=O)NC[C@H]2O[C@@H](n3cnc4c(N)ncnc43)[C@H](O)[C@@H]2O)c(O)c1 [Compound 5, 5′-N-[N-(4-Amino-2-hydroxybenzoyl)sulfamoyl]amino-5′-deoxyadenosine]
[3]
  MIC: 1.81 µg/mL
[5]
  pKa: ~6

## CCN(CC)CC.Nc1ncnc2c1ncn2[C@@H]1O[C@H](CNS(=O)(=O)NC(=O)c2ccccc2O)[C@@H](O)[C@H]1F [Compound 8, 5′-N-[N-(2-Hydroxybenzoyl)sulfamoyl]amino-2′, 5′-dideoxy-2′-fluoroadenosine triethylammonium salt]
[3]
  MIC: 0.11 µg/mL

## CCN(CC)CC.Nc1ncnc2c1ncn2[C@@H]1O[C@H](CNS(=O)(=O)NC(=O)c2ccccc2O)[C@@H](O)[C@H]1O [Compound 4, 5′-N-[N-(2-Hydroxybenzoyl)sulfamoyl]amino-5′ -deoxyadenosine triethylammonium salt]
[3]
  MIC: 0.11 µg/mL
[5]
  pKa: ~5
[2]; female, Sprague-Dawley, in vivo, po, 25 mg/kg
  Cmax: 1400 nM

## CCN(CC)CC.O=C(NS(=O)(=O)NC[C@H]1O[C@@H](n2cnc3c(NC4CC4)ncnc32)[C@H](O)[C@@H]1O)c1ccccc1O [Compound 6, N^6-Cyclopropyl-5′-deoxy-5′-N-[N-(2-hydroxybenzoyl)sulfamoyl]aminoadenosine triethylammonium salt]
[3]
  MIC: 0.06 µg/mL

## CCN(CC)CC.O=C(NS(=O)(=O)NC[C@H]1O[C@@H](n2cnc3c(NC4CC4)nc(-c4ccccc4)nc32)[C@H](O)[C@@H]1O)c1ccccc1O [Compound 7, N^6-Cyclopropyl-5′-deoxy-5′-N-[N-(2-hydroxybenzoyl)sulfamoyl]amino-2-phenyladenosine triethylammonium salt]
[3]
  MIC: 4.27 µg/mL
[10]
  aqueous solubility: poor aqueous solubility
